Literature values as cited in article PMC8513935.

Legend:
[1] = log P octanol/water from commercial databases, averaged (the ESI); conditions: Octanol (wet), 25 C
[2] = derived by the authors as gas->solvent minus gas->water (a hypothetical dry solvent; the ESI), not a two-phase measurement
[3] = experimental, compiled by the authors from the literature (the ESI cites the sources)

Row | SMILES | log K of transfer, water to solvent [1] | log K of transfer, water to solvent ([2]; Hexadecane, 25 C) | log K of transfer, water to solvent ([2]; Methanol, 25 C) | log K of transfer, water to solvent ([2]; Octan-1-ol(dry), 25 C) | log K of transfer, gas to solvent ([3]; Hexadecane, 25 C) | log K of transfer, gas to solvent ([3]; Methanol, 25 C) | log K of transfer, gas to solvent ([3]; Octan-1-ol, 25 C) | log K of transfer, gas to solvent ([3]; Water, 25 C) | log K of transfer, water to solvent ([2]; 1,2-Dichloroethane, 25 C) | log K of transfer, water to solvent ([2]; Butan-1-ol, 25 C) | log K of transfer, water to solvent ([2]; Butanone, 25 C) | log K of transfer, water to solvent ([2]; CCl4, 25 C) | log K of transfer, water to solvent ([2]; Chloroform, 25 C) | log K of transfer, gas to solvent ([3]; 1,2-Dichloroethane, 25 C) | log K of transfer, gas to solvent ([3]; Butan-1-ol, 25 C) | log K of transfer, gas to solvent ([3]; Butanone, 25 C) | log K of transfer, gas to solvent ([3]; CCl4, 25 C) | log K of transfer, gas to solvent ([3]; Chloroform, 25 C) | other results
1 | CC(C)c1ccccc1 | 3.66 log10 K | 3.86 log10 K | 3.58 log10 K | 3.76 log10 K | 4.08 log10 K | 3.8 log10 K | 3.98 log10 K | 0.22 log10 K |  |  |  |  |  |  |  |  |  |  | log K of transfer, water to solvent ([2]; Acetone, 25 C): 4.1 log10 K; log K of transfer, water to solvent ([2]; Propan-2-ol, 25 C): 3.57 log10 K; log K of transfer, water to solvent ([2]; Tetrahydrofuran, 25 C): 4.55 log10 K; log K of transfer, gas to solvent ([3]; Propan-2-ol, 25 C): 3.79 log10 K; log K of transfer, gas to solvent ([3]; Propanone, 25 C): 4.32 log10 K; log K of transfer, gas to solvent ([3]; Tetrahydrofuran, 25 C): 4.77 log10 K
2 | CCCCl | 2.04 log10 K | 1.96 log10 K |  | 2 log10 K | 2.2 log10 K |  | 2.24 log10 K | 0.24 log10 K | 2.47 log10 K | 2.08 log10 K | 2.46 log10 K | 2.47 log10 K | 2.41 log10 K | 2.71 log10 K | 2.32 log10 K | 2.7 log10 K | 2.71 log10 K | 2.65 log10 K | log K of transfer, water to solvent ([2]; Cyclohexanone, 25 C): 2.45 log10 K; log K of transfer, water to solvent ([2]; Hexane, 25 C): 2.23 log10 K; log K of transfer, gas to solvent ([3]; Cyclohexanone, 25 C): 2.69 log10 K; log K of transfer, gas to solvent ([3]; Hexane, 25 C): 2.47 log10 K
3 | O=C1CCCC1 | 0.38 log10 K | -0.229 log10 K |  | 0.22 log10 K | 3.22 log10 K |  | 3.67 log10 K | 3.45 log10 K | 1.14 log10 K |  |  | 0.61 log10 K |  | 4.59 log10 K |  |  | 4.06 log10 K |  | log K of transfer, water to solvent ([2]; Di-n-butyl ether, 25 C): 0.08 log10 K; log K of transfer, gas to solvent ([3]; Di-n-butyl ether, 25 C): 3.53 log10 K
4 | Cc1cccnc1 | 1.2 log10 K | 0.131 log10 K |  |  | 3.63 log10 K |  |  | 3.5 log10 K |  | 1.2 log10 K |  |  | 1.89 log10 K |  | 4.7 log10 K |  |  | 5.39 log10 K | log K of transfer, water to solvent ([2]; 2-Methylpropan-2-ol, 25 C): 0.77 log10 K; log K of transfer, water to solvent ([2]; Cyclohexane, 25 C): 0.27 log10 K; log K of transfer, water to solvent ([2]; Propan-1-ol, 25 C): 1.15 log10 K; log K of transfer, gas to solvent ([3]; 2-Methylpropan-2-ol, 25 C): 4.27 log10 K; log K of transfer, gas to solvent ([3]; Cyclohexane, 25 C): 3.77 log10 K; log K of transfer, gas to solvent ([3]; Propan-1-ol, 25 C): 4.65 log10 K
5 | CCCCCCCCO | 3.07 log10 K | 1.62 log10 K | 2.89 log10 K | 3.03 log10 K | 4.62 log10 K | 5.89 log10 K | 6.03 log10 K | 3 log10 K |  |  | 3.01 log10 K | 2.09 log10 K |  |  |  | 6.01 log10 K | 5.09 log10 K |  | log K of transfer, water to solvent ([2]; Benzene, 25 C): 2.91 log10 K; log K of transfer, water to solvent ([2]; Butyronitrile, 25 C): 2.69 log10 K; log K of transfer, water to solvent ([2]; Hexan-1-ol, 25 C): 3.29 log10 K; log K of transfer, gas to solvent ([3]; Benzene, 25 C): 5.91 log10 K; log K of transfer, gas to solvent ([3]; Butyronitrile, 25 C): 5.69 log10 K; log K of transfer, gas to solvent ([3]; Hexan-1-ol, 25 C): 6.29 log10 K
